This passage reports EC50 results from US8871756B2 (Hoffmann-La Roche Inc., priority 2011, dated 2014).

The first test relates to RSV Long strain. Put plainly: Viral cytopathic effect (CPE) assay, anti-RSV activity. It counts as cell-based, Respiratory Syncytial Virus. As to conditions: RSV Long strain (ATCC); cell viability after 6 days, Cell Counting kit-8. As to the method:
Viral cytopathic effect (CPE) assay: To measure anti-RSV activity of compounds, 96-well plates are seeded with 6×10^3 cells per well in Dulbecco's modified Eagle's medium (DMEM) containing 10% fetal bovine serum (FBS). Cells are infected the next day with sufficient RSV Long strain (ATCC) to produce an approximately 80-90% cytopathic effect after 6 days, in the presence of serial half-log diluted compound in a total volume of 200 μL per well. The viability of cells is assessed after 6 days using Cell Counting kit-8 (Dojindo Molecular Technologies). The absorbance at 450 nm and referenced at 630 nm is measured to determine 50% effective concentration (EC50).
The compounds of the present invention were tested for their anti-RSV activity, and the activation as described herein. The Examples were tested in the above assay and found to have EC50 of about 0.0001 μM to about 10 μM.
Background: Cytopathic effects are the visible damage that an infection or toxin causes in cultured cells.
As usually defined, the EC50 is the midpoint of the concentration-response curve. High values mean lower potency in that assay, low ones higher potency in that assay. As for `Cc1ccc2nc(N3CCS(=O)(=O)c4ccccc4C3)nc(NCC(F)CCN)c2c1` (stereo not shown) [Example 62-5, N^˜1^˜-[2-(1,1-Dioxido-2,3-dihydro-1,4-benzothiazepin-4(5H)-yl)-6-methylquinazolin-4-yl]-2-fluorobutane-1,4-diamine], the EC50 was determined as 0.017 µM.

The same test, now with this note: human respiratory syncytial virus, 144 h, RSV Long strain (ATCC); cell viability after 6 days, Cell Counting kit-8.
The compound `Cc1ccc2nc(N3CCC(F)(F)c4ccccc4C3)nc(NCC(F)(F)CN)c2c1` [Example 117, N-[2-(5,5-Difluoro-1,3,4,5-tetrahydro-2H-2-benzazepin-2-yl)-6-methylquinazolin-4-yl]-2,2-difluoropropane-1,3-diamine] registered an EC50 of 5.97 µM.

On to `Cc1ccc2nc(N3CCS(=O)(=O)c4ccccc4C3)cc(NC3CCNCC3)c2c1` [Example 3-39, 2-(1,1-Dioxido-2,3-dihydro-1,4-benzothiazepin-4(5H)-yl)-6-methyl-N-(piperidin-4-yl)quinolin-4-amine], for which the concentration giving a half-maximal response (EC50) was 0.03 µM.

Take `Cc1ccc2nc(N3CCS(=O)(=O)c4ccccc4C3)cc(NCCNc3ccccn3)c2c1` [Example 46, N-[2-(1,1-Dioxido-2,3-dihydro-1,4-benzothiazepin-4(5H)-yl)-6-methylquinolin-4-yl]-N′-(pyridin-2-yl)ethane-1,2-diamine]: the response was half-maximal at 0.682 µM (EC50).

Regarding `COc1ccc2c(c1)CN(c1cc(NCCN)c3ccccc3n1)CCC2` [Example 118-17, N-[2-(8-Methoxy-1,3,4,5-tetrahydro-2H-2-benzazepin-2-yl)quinolin-4-yl]ethane-1,2-diamine], the EC50 was determined as 0.806 µM.

Compound `Cc1ccc2nc(N3CCS(=O)(=O)c4ccc(F)cc4C3)cc(NCC3(N)COC3)c2c1` [Example 1-3, N-[(3-Aminooxetan-3-yl)methyl]-2-(7-fluoro-1,1-dioxido-2,3-dihydro-1,4-benzothiazepin-4(5H)-yl)-6-methylquinolin-4-amine] returned an EC50 of 0.072 µM.

Consider `Cc1ccc2nc(N3CCS(=O)(=O)c4ccccc4C3)cc(NCCc3nn[nH]n3)c2c1` [Example 84, 2-(1,1-Dioxido-2,3-dihydro-1,4-benzothiazepin-4(5H)-yl)-6-methyl-N-[2-(1H-tetrazol-5-yl)ethyl]quinolin-4-amine], for which the EC50 came out at 2.96 µM.

In turn, `COc1ccc2c(c1)CN(c1cc(NCC3(CNC(C)=O)COC3)c3cc(C)ccc3n1)CCS2(=O)=O` [Example 3-6, N-{[3-({[2-(7-Methoxy-1,1-dioxido-2,3-dihydro-1,4-benzothiazepin-4(5H)-yl)-6-methylquinolin-4-yl]amino}methyl)oxetan-3-yl]methyl}acetamide] displayed an EC50 of 0.058 µM.

The compound `Cc1ccc2nc(N3CC[S+]([O-])c4ccccc4C3)cc(NCCN)c2c1` (stereo not shown) [Example 18-10, N-[6-Methyl-2-(1-oxido-2,3-dihydro-1,4-benzothiazepin-4(5H)-yl)quinolin-4-yl]ethane-1,2-diamine] yielded an EC50 of 0.011 µM.

The compound `NC1(CNc2cc(N3CCS(=O)(=O)c4ccc(F)cc4C3)nc3ccc(Cl)cc23)COC1` [Example 3-3, N-[(3-Aminooxetan-3-yl)methyl]-6-chloro-2-(7-fluoro-1,1-dioxido-2,3-dihydro-1,4-benzothiazepin-4(5H)-yl)quinolin-4-amine] came in with an EC50 of 3.55 µM.

`Cc1cccc2nc(N3CCS(=O)(=O)c4ccccc4C3)cc(NCCCN)c12` [Example 17-6, N-[2-(1,1-Dioxido-2,3-dihydro-1,4-benzothiazepin-4(5 H)-yl)-5-methylquinolin-4-yl]propane-1,3-diamine] displayed an EC50 of 0.086 µM.

In turn, `Cc1ccc2nc(N3CCS(=O)(=O)c4ccccc4C3)cc(NC(=O)Nc3ccccc3)c2c1` [Example 50-1, 1-[2-(1,1-Dioxido-2,3-dihydro-1,4-benzothiazepin-4(5H)-yl)-6-methylquinolin-4-yl]-3-phenylurea] returned an EC50 of 0.931 µM.

In turn, `Cc1ccc2nc(N3CCS(=O)(=O)c4ccccc4C3)cc(NCCC#N)c2c1` [Example 83, 3-{[2-(1,1-Dioxido-2,3-dihydro-1,4-benzothiazepin-4(5H)-yl)-6-methylquinolin-4-yl]amino}propanenitrile] returned an EC50 of 0.662 µM.

In turn, `NC1(CNc2cc(N3CC[S+]([O-])c4ccccc4C3)nc3ccc(Cl)cc23)COC1` (stereo not shown) [Example 18-4, N-[(3-Aminooxetan-3-yl)methyl]-6-chloro-2-(1-oxido-2,3-dihydro-1,4-benzothiazepin-4 (5H)-yl)quinolin-4-amine] had an EC50 of 0.061 µM.

For the compound `Cc1ccc2nc(N3CCC(F)(F)c4ccccc4C3)cc(NCCCCN)c2c1` [Example 111-10, N-[2-(5,5-Difluoro-1,3,4,5-tetrahydro-2H-2-benzazepin-2-yl)-6-methylquinolin-4-yl]butane-1,4-diamine], the EC50 stood at 0.107 µM.

`Cc1ccc2nc(N3CCS(=O)(=O)c4ccccc4C3)cc(NC(=O)CN)c2c1` [Example 40-1, N-[2-(1,1-Dioxido-2,3-dihydro-1,4-benzothiazepin-4(5H)-yl)-6-methylquinolin-4-yl]glycinamide] had a half-maximal effective concentration (EC50) of 0.039 µM.

In the case of `Cc1ccc2nc(N3CC[S+]([O-])c4ccccc4C3)nc(N3CCC(N)C3)c2c1` (stereo not shown) [Example 93-1, 1-[6-Methyl-2-(1-oxido-2,3-dihydro-1,4-benzothiazepin-4(5H)-yl)quinazolin-4-yl]pyrrolidin-3-amine], a half-maximal response (EC50) required 0.005 µM.

In turn, `Cc1ccc2nc(N3CC(=O)Nc4ccccc4C3)cc(NCCN)c2c1` [Example 133-1, 4-{4-[(2-Aminoethyl)amino]-6-methylquinolin-2-yl}-1,3,4,5-tetrahydro-2H-1,4-benzodiazepin-2-one] gave an EC50 of 0.31 µM.

`Cc1ccc2nc(N3CCS(=O)(=O)c4cc(F)ccc4C3)cc(NCC3(CN)COC3)c2c1` [Example 3-1, N-{[3-(Aminomethyl)oxetan-3-yl]methyl}-2-(8-fluoro-1,1-dioxido-2,3-dihydro-1,4-benzothiazepin-4(5H)-yl)-6-methylquinolin-4-amine]: the response was half-maximal at 0.006 µM (EC50).

For the compound `Cc1ccc2nc(N3CCS(=O)(=O)c4ccccc4C3)nc(NCC3(N)CCC3)c2c1` [Example 61-2, N-[(1-Aminocyclobutyl)methyl]-2-(1,1-dioxido-2,3-dihydro-1,4-benzothiazepin-4(5H)-yl)-6-methylquinazolin-4-amine], a half-maximal response (EC50) required 0.097 µM.

For `Cc1ccc2nc(N3CCS(=O)(=O)c4ccccc4C3)cc(NCC3CNCCO3)c2c1` (stereo not shown) [Example 21-1, 2-(1,1-Dioxido-2,3-dihydro-1,4-benzothiazepin-4(5H)-yl)-6-methyl-N-(morpholin-2-ylmethyl)quinolin-4-amine], a half-maximal response (EC50) required 0.023 µM.

For `OCC(O)Cc1cc(N2CCCc3ccccc3C2)nc2ccc(Cl)cc12` (stereo not shown) [Example 130-2, 3-[6-Chloro-2-(1,3,4,5-tetrahydro-2H-2-benzazepin-2-yl)quinolin-4-yl]propane-1,2-diol], the EC50 is 7.27 µM.

Take `Cc1ccc2nc(N3CCS(=O)(=O)c4ccccc4C3)cc(NC[C@@H](O)CO)c2c1` [Example 3-11, (2R)-3-{[2-(1,1-Dioxido-2,3-dihydro-1,4-benzothiazepin-4(5H)-yl)-6-methylquinolin-4-yl]amino}propane-1,2-diol]: the EC50 stood at 0.054 µM.

In the case of `Cc1ccc2nc(N3CCS(=O)(=O)c4ccccc4C3)cc(NCC3(N)CC3)c2c1` [Example 21-5, (1-Amino-cyclopropylmethyl)-[2-(5,5-dioxo-5,6,7,9-tetrahydro-5λ^6-thia-8-aza-benzocyclohepten-8-yl)-6-methyl-quinolin-4-yl]-amine], the EC50 amounted to 0.007 µM.

Regarding `CO/N=C1\CCN(c2cc(NCC3(N)COC3)c3cc(C)ccc3n2)Cc2ccccc21` [Example 112-2, N-[(3-Aminooxetan-3-yl)methyl]-2-[(5E)-5-(methoxyimino)-1,3,4,5-tetrahydro-2H-2-benzazepin-2-yl]-6-methylquinolin-4-amine], the EC50 is 0.092 µM.

`Cc1ccc2nc(N3CCS(=O)(=O)c4ccccc4C3)cc(NCC3(CN)CS(=O)(=O)C3)c2c1` [Example 6-2, N-{[3-(Aminomethyl)-1,1-dioxidothietan-3-yl]methyl}-2-(1,1-dioxido-2,3-dihydro-1,4-benzothiazepin-4(5H)-yl)-6-methylquinolin-4-amine] registered an EC50 of 0.908 µM.

Turning to `Cc1ccc2nc(N3CCC(F)(F)c4ccccc4C3)cc(NCCN3CCNCC3)c2c1` [Example 110-7, 2-(5,5-Difluoro-1,3,4,5-tetrahydro-2H-2-benzazepin-2-yl)-6-methyl-N-[2-(piperazin-1-yl)ethyl]quinolin-4-amine], it took 1.18 µM to reach a half-maximal effect (EC50).

The compound `Cc1ccc2nc(N3CCS(=O)(=O)c4ccccc4C3)cc(NCCN3CCOCC3)c2c1` [Example 12-1, 2-(1,1-Dioxido-2,3-dihydro-1,4-benzothiazepin-4(5H)-yl)-6-methyl-N-[2-(morpholin-4-yl)ethyl]quinolin-4-amine] returned an EC50 of 0.536 µM.

The compound `COCCNCCNc1cc(N2CCS(=O)(=O)c3ccccc3C2)nc2ccc(C)cc12` [Example 3-44, N-[2-(1,1-Dioxido-2,3-dihydro-1,4-benzothiazepin-4(5H)-yl)-6-methylquinolin-4-yl]-N′-(2-methoxyethyl)ethane-1,2-diamine] gave an EC50 of 0.012 µM.

Compound `Cc1ccc2nc(N3CCS(=O)(=O)c4ccccc4C3)cc(NCC3(CN)CSC3)c2c1` [Example 6-1, N-{[3-(Aminomethyl)thietan-3-yl]methyl}-2-(1,1-dioxido-2,3-dihydro-1,4-benzothiazepin-4(5H)-yl)-6-methylquinolin-4-amine] registered a half-maximal effective concentration (EC50) of 0.025 µM.

Compound `Cc1ccc2nc(N3CCS(=O)(=O)c4ccccc4C3)cc(NCCCCN)c2c1` [Example 9-19, N-[2-(1,1-Dioxido-2,3-dihydro-1,4-benzothiazepin-4(5 H)-yl)-6-methylquinolin-4-yl]butane-1,4-diamine] showed an EC50 of 0.0007 µM.
